Reference: patent publication US6472348B1, “Pyridone derivatives and herbicides” (Kumiai Chemical Industry Co., Ltd., priority 1996, dated 2002)

What was measured:
Format in all cases: in vivo
slender amaranth (Am) [1] = test: Test Example 7: crop plant selectivity by upland field soil treatment (corn), herbicidal effects; design: scale not given here; details: dose 6.3 g ai/10a, 21st day after application
Protocol: (§1) (Test on Crop Plant Selectivity by Upland Field Soil Treatment)
(§2) In a plastic pot (surface area: 600 cm^2) filled with sand, corn (Ze), green foxtail (Se), pale smartweed (Po), slender amaranth (Am), common lambsquarters (Ch) and China jute (Ab) were sown and covered with soil. […] The plants were then cultured in a green house, and the evaluation of the herbicidal effects and phytotoxicity was conducted on the 21st day after the application in accordance with the standards as identified in Table 47.

green foxtail (Se) [2] = test: as above; design: scale not given here; details: dose 6.3 g ai/10a, 21st day after application
Protocol: as §1, §2

[3] = tested on: common lambsquarters (Ch); test: as above; design: scale not given here; details: dose 6.3 g ai/10a, 21st day after application
Protocol: as §1, §2

pale smartweed (Po) [4] = test: as above; design: scale not given here; details: dose 6.3 g ai/10a, 21st day after application
Protocol: as §1, §2

China jute (Ab) [5] = test: as above; design: scale not given here; details: dose 6.3 g ai/10a, 21st day after application
Protocol: as §1, §2

soybean (Gl) = test: Test Example 6: crop plant selectivity by upland field soil treatment (soybean), phytotoxicity; design: scale not given here; details: dose 6.3 g ai/10a, 21st day after application
Summary of the method: (§3)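 Soybean and weed seeds were sown in sand-filled pots and covered with soil, then given a pre-emergence soil application. Plants were grown on in a greenhouse, and herbicidal effect and crop phytotoxicity were scored against a set rating scale 21 days after application.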

slender amaranth (Am) [6] = test: Test Example 2: herbicidal effects by upland field soil treatment; details: 100 g of the active ingredient per 10 ares, evaluated on the 21st day after application;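 also: grade of growth control; 5 = at least 90%; 4 = 70 to 90%; 3 = 50 to 70%; 2 = 30 to 50%; 1 = 10 to 30%; 0 = under 10%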
Source text: (§4) (Test on Herbicidal Effects by Upland Field Soil Treatment)

barnyardgrass (Ec) [7] = test: as above; details: 100 g of the active ingredient per 10 ares, evaluated on the 21st day after application
Source text: as §4

rice flatsedge (Ci) [8] = test: as above; details: 100 g of the active ingredient per 10 ares, evaluated on the 21st day after application
Source text: as §4

Digitaria ciliaris (Di) = test: as above; details: 100 g of the active ingredient per 10 ares, evaluated on the 21st day after application;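 also: grade of growth control; 5 = at least 90%; 4 = 70 to 90%; 3 = 50 to 70%; 2 = 30 to 50%; 1 = 10 to 30%; 0 = under 10%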
Source text: as §4

[9] = tested on: common lambsquarters (Ch); test: as above; details: 100 g of the active ingredient per 10 ares, evaluated on the 21st day after application
Source text: as §4

pale smartweed (Po) [10] = test: as above; details: 100 g of the active ingredient per 10 ares, evaluated on the 21st day after application
Source text: as §4

bulrush (Sc) = test: Test Example 1: herbicidal effects by paddy field soil treatment; details: 100 g of the active ingredient per 10 ares, 21st day after the application, index 0-5 of Table 47;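 also: grade of growth control; 5 = at least 90%; 4 = 70 to 90%; 3 = 50 to 70%; 2 = 30 to 50%; 1 = 10 to 30%; 0 = under 10%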
Summary of the method: (§5)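 Scoring of herbicidal effect came 21 days after application of 100 g active ingredient per 10 ares to flooded (3 cm) paddy-soil pots sown with barnyardgrass, monochoria and bulrush, kept in a greenhouse.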

barnyardgrass (Ec) [11] = test: as above; details: 100 g of the active ingredient per 10 ares, 21st day after the application, index 0-5 of Table 47
Summary of the method: as §5

monochoria (Mo) = test: as above; details: 100 g of the active ingredient per 10 ares, 21st day after the application, index 0-5 of Table 47;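 also: grade of growth control; 5 = at least 90%; 4 = 70 to 90%; 3 = 50 to 70%; 2 = 30 to 50%; 1 = 10 to 30%; 0 = under 10%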
Summary of the method: as §5

slender amaranth (Am) [12] = test: Test Example 6: crop plant selectivity by upland field soil treatment (soybean), herbicidal effects; design: scale not given here; details: dose 6.3 g ai/10a, 21st day after application
Summary of the method: as §3

green foxtail (Se) [13] = test: as above; design: scale not given here; details: dose 6.3 g ai/10a, 21st day after application
Summary of the method: as §3

[14] = tested on: common lambsquarters (Ch); test: as above; design: scale not given here; details: dose 6.3 g ai/10a, 21st day after application
Summary of the method: as §3

pale smartweed (Po) [15] = test: as above; design: scale not given here; details: dose 6.3 g ai/10a, 21st day after application
Summary of the method: as §3

China jute (Ab) [16] = test: as above; design: scale not given here; details: dose 6.3 g ai/10a, 21st day after application
Summary of the method: as §3

slender amaranth (Am) [17] = test: Test Example 3: herbicidal effects by upland field foliage treatment; design: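 grade of growth control; 5 = at least 90%; 4 = 70 to 90%; 3 = 50 to 70%; 2 = 30 to 50%; 1 = 10 to 30%; 0 = under 10%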; details: 100 g active ingredient per 10 ares, evaluated 14th day after treatment
Summary of the method: (§6)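 Using plants cultured for 2 weeks in a greenhouse from seed sown in soil-covered sand (pots 120 cm^2), the compounds were applied to foliage, and weed control was graded by standard criteria 14 days thereafter.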

barnyardgrass (Ec) [18] = test: as above; design: scale not given here; details: 100 g active ingredient per 10 ares, evaluated 14th day after treatment
Summary of the method: as §6

rice flatsedge (Ci) [19] = test: as above; design: scale not given here; details: 100 g active ingredient per 10 ares, evaluated 14th day after treatment
Summary of the method: as §6

Diaitaria ciliaris (Di) = test: as above; design: scale not given here; details: 100 g active ingredient per 10 ares, evaluated 14th day after treatment
Summary of the method: as §6

[20] = tested on: common lambsquarters (Ch); test: as above; design: scale not given here; details: 100 g active ingredient per 10 ares, evaluated 14th day after treatment
Summary of the method: as §6

pale smartweed (Po) [21] = test: as above; design: scale not given here; details: 100 g active ingredient per 10 ares, evaluated 14th day after treatment
Summary of the method: as §6

slender amaranth (Am) [22] = test: Test Example 5: crop plant selectivity by upland field soil treatment (wheat), herbicidal effects; design: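 grade of growth control; 5 = at least 90%; 4 = 70 to 90%; 3 = 50 to 70%; 2 = 30 to 50%; 1 = 10 to 30%; 0 = under 10%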; details: dose 6.3 g ai/10a, 21st day after application
Summary of the method: (§7)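 Pots of sand sown with wheat and weeds (incl. Digitaria ciliaris, green foxtail, slender amaranth), seeds covered with soil, soil-applied treatment. Grown in greenhouse; herbicidal effect and crop phytotoxicity scored visually on day 21 after application against a rating scale.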

green foxtail (Se) [23] = test: as above; design: scale not given here; details: dose 6.3 g ai/10a, 21st day after application
Summary of the method: as §7

[24] = tested on: common lambsquarters (Ch); test: as above; design: scale not given here; details: dose 6.3 g ai/10a, 21st day after application
Summary of the method: as §7

pale smartweed (Po) [25] = test: as above; design: scale not given here; details: dose 6.3 g ai/10a, 21st day after application
Summary of the method: as §7

China jute (Ab) [26] = test: as above; design: scale not given here; details: dose 6.3 g ai/10a, 21st day after application
Summary of the method: as §7

slender amaranth (Am) [27] = test: Test Example 4: crop plant selectivity by upland field soil treatment (cotton), herbicidal effects; design: scale not given here; details: dose 6.3 g ai/10 a, evaluated 21st day after application
Summary of the method: (§8)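 Upland soil treatment: crop and weed seeds in sand pots under a soil cover, compound applied to soil, greenhouse-grown, rated visually 21 d later.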

green foxtail (Se) [28] = test: as above; design: scale not given here; details: dose 6.3 g ai/10 a, evaluated 21st day after application
Summary of the method: as §8

[29] = tested on: common lambsquarters (Ch); test: as above; design: scale not given here; details: dose 6.3 g ai/10 a, evaluated 21st day after application
Summary of the method: as §8

pale smartweed (Po) [30] = test: as above; design: scale not given here; details: dose 6.3 g ai/10 a, evaluated 21st day after application
Summary of the method: as §8

China jute (Ab) [31] = test: as above; design: scale not given here; details: dose 6.3 g ai/10 a, evaluated 21st day after application
Summary of the method: as §8

wheat (Tr) = test: Test Example 5: crop plant selectivity by upland field soil treatment (wheat), phytotoxicity; design: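 grade of crop injury; 5 = at least 90%; 4 = 70 to 90%; 3 = 50 to 70%; 2 = 30 to 50%; 1 = 10 to 30%; 0 = under 10%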; details: dose 6.3 g ai/10a, 21st day after application
Summary of the method: as §7

corn (Ze) = test: Test Example 7: crop plant selectivity by upland field soil treatment (corn), phytotoxicity; design: scale not given here; details: dose 6.3 g ai/10a, 21st day after application
Protocol: as §1, §2

cotton (Go) = test: Test Example 4: crop plant selectivity by upland field soil treatment (cotton), phytotoxicity; design: scale not given here; details: dose 6.3 g ai/10 a, evaluated 21st day after application
Summary of the method: as §8

COc1cc(-c2ccc(C(F)(F)F)n(C)c2=O)c(Cl)cc1Cl [Compound 1-205]
Herbicidal effects Am (slender amaranth (Am) [1]): 5
Herbicidal effects Se (green foxtail (Se) [2]): 5
Herbicidal effects Ch [3]: 5
Herbicidal effects Po (pale smartweed (Po) [4]): 5
Herbicidal effects Ab (China jute (Ab) [5]): 4
Phytotoxicity Gl (soybean (Gl)): 1
Herbicidal effects Am (slender amaranth (Am) [6]): 5
Herbicidal effects Ec (barnyardgrass (Ec) [7]): 5
Herbicidal effects Ci (rice flatsedge (Ci) [8]): 5
Herbicidal effects Di (Digitaria ciliaris (Di)): 5
Herbicidal effects Ch [9]: 5
Herbicidal effects Po (pale smartweed (Po) [10]): 5
Herbicidal effects Sc (bulrush (Sc)): 5
Herbicidal effects Ec (barnyardgrass (Ec) [11]): 5
Herbicidal effects Mo (monochoria (Mo)): 5
Herbicidal effects Am (slender amaranth (Am) [12]): 5
Herbicidal effects Se (green foxtail (Se) [13]): 5
Herbicidal effects Ch [14]: 5
Herbicidal effects Po (pale smartweed (Po) [15]): 5
Herbicidal effects Ab (China jute (Ab) [16]): 4
Herbicidal effects Am (slender amaranth (Am) [17]): 5
Herbicidal effects Ec (barnyardgrass (Ec) [18]): 5
Herbicidal effects Ci (rice flatsedge (Ci) [19]): 5
Herbicidal effects Di (Diaitaria ciliaris (Di)): 5
Herbicidal effects Ch [20]: 5
Herbicidal effects Po (pale smartweed (Po) [21]): 5
Herbicidal effects Am (slender amaranth (Am) [22]): 5
Herbicidal effects Se (green foxtail (Se) [23]): 5
Herbicidal effects Ch [24]: 5
Herbicidal effects Po (pale smartweed (Po) [25]): 5
Herbicidal effects Ab (China jute (Ab) [26]): 4
Herbicidal effects Am (slender amaranth (Am) [27]): 5
Herbicidal effects Se (green foxtail (Se) [28]): 5
Herbicidal effects Ch [29]: 5
Herbicidal effects Po (pale smartweed (Po) [30]): 5
Herbicidal effects Ab (China jute (Ab) [31]): 4
Phytotoxicity Tr (wheat (Tr)): 1
Phytotoxicity Ze (corn (Ze)): 2
Phytotoxicity Go (cotton (Go)): 1
